Assay results published in ChEMBL document CHEMBL1177792, “Pre-clinical characterization of aryloxypyridine amides as histamine H3 receptor antagonists: identification of candidates for clinical development” (Bioorg Med Chem Lett, 2010).
Values belong to the compound of their own block, whether it stands above or below them.

Assays:
Histamine H3 receptor [1] = target: T1, Histamine H3 receptor (Homo sapiens, UniProt Q9Y5N1); assay: Displacement of [125I]-iodoproxyfan from human recombinant histamine H3 receptor expressed in human SK-N-MC cells after 1 hr by scintillation counting; format: cell-based
Histamine H3 receptor [2] = target: T1, Histamine H3 receptor; assay: Antagonist activity at human histamine H3 receptor expressed in human SK-N-MC cells assessed as inhibition of forskolin-induced cAMP accumulation after 6 hrs; format: functional, cell-based; conditions: read-out: pA2 (converted)
[3] = Volume of distribution at steady state in Sprague-Dawley rat at 1 mg/kg, iv and 10 mg/kg, po; format: ADME, organism-based; conditions: in vivo, read-out: Vdss
[4] = Metabolic stability in human liver microsomes assessed as compound remaining after 30 mins; format: ADME, Microsome; conditions: read-out: Stability
Rattus norvegicus = assay: Ex vivo receptor occupancy of histamine H3 receptor in Wistar rat brain at 10 mg/kg, po after 1 hr by autoradiography; format: functional
[5] = Bioavailability in Sprague-Dawley rat at 1 mg/kg, iv and 10 mg/kg, po; format: ADME, organism-based; conditions: in vivo
hERG (KCNH2) = hERG (KCNH2) (Homo sapiens, UniProt Q12809); assay: Displacement of radiolabeled astemizole from human ERG at 10 uM; conditions: probe radiolabeled astemizole
[6] = Clearance in Sprague-Dawley rat at 1 mg/kg, iv and 10 mg/kg, po; format: ADME, organism-based; conditions: in vivo
[7] = Metabolic stability in rat liver microsomes assessed as compound remaining after 30 mins; format: ADME, Microsome; conditions: read-out: Stability
[8] = Plasma concentration in Wistar rat at 10 mg/kg, po after 1 hr; format: ADME, organism-based; design: dose 10 mg/kg, route oral; conditions: read-out: Drug uptake
[9] = target: T2, Voltage-gated inwardly rectifying potassium channel KCNH2 (Homo sapiens, UniProt Q12809); assay: Inhibition of human ERG by patch clamp technique
[10] = Drug level in Wistar rat brain at 10 mg/kg, po after 1 hr; format: ADME, organism-based; design: dose 10 mg/kg, route oral; conditions: read-out: Drug uptake
[11] = Half life in Sprague-Dawley rat at 1 mg/kg, iv and 10 mg/kg, po; format: ADME, organism-based; conditions: in vivo
[12] = target: T2, Voltage-gated inwardly rectifying potassium channel KCNH2; assay: Displacement of radiolabeled astemizole from human ERG
Histamine H3 receptor [13] = target: T3, Histamine H3 receptor (Rattus norvegicus, UniProt Q9QYN8); assay: Antagonist activity at rat histamine H3 receptor expressed in human SK-N-MC cells assessed as inhibition of forskolin-induced cAMP accumulation after 6 hrs; format: functional, cell-based; conditions: read-out: pA2 (converted)
Histamine H3 receptor [14] = target: T3, Histamine H3 receptor; assay: Binding affinity to histamine H3 receptor in rat brain; format: tissue-based
[15] = Volume of distribution at steady state in Beagle dog at 1 mg/kg, iv and 5 mg/kg, po; format: ADME, organism-based, Canis lupus familiaris; conditions: in vivo, read-out: Vdss
[16] = Clearance in Beagle dog at 1 mg/kg, iv and 5 mg/kg, po; format: ADME, organism-based, Canis lupus familiaris; conditions: in vivo
[17] = Half life in Beagle dog at 1 mg/kg, iv and 5 mg/kg, po; format: ADME, organism-based, Canis lupus familiaris; conditions: in vivo
[18] = Bioavailability in Beagle dog at 1 mg/kg, iv and 5 mg/kg, po; format: ADME, organism-based, Canis lupus familiaris; conditions: in vivo

T3 sequence (Q9QYN8 whole entry): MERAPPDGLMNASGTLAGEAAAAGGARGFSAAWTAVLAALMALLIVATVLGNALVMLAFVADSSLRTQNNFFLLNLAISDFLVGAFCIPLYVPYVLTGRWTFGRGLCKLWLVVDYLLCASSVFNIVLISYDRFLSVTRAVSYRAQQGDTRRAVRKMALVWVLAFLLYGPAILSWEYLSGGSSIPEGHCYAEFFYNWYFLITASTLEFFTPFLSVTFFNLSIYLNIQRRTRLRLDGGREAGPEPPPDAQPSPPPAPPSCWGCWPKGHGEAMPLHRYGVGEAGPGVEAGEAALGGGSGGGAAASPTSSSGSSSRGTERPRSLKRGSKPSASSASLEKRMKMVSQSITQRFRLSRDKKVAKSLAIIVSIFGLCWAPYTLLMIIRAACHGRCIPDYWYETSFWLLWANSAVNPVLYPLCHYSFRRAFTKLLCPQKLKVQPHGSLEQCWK
T1 sequence (Q9Y5N1 whole entry): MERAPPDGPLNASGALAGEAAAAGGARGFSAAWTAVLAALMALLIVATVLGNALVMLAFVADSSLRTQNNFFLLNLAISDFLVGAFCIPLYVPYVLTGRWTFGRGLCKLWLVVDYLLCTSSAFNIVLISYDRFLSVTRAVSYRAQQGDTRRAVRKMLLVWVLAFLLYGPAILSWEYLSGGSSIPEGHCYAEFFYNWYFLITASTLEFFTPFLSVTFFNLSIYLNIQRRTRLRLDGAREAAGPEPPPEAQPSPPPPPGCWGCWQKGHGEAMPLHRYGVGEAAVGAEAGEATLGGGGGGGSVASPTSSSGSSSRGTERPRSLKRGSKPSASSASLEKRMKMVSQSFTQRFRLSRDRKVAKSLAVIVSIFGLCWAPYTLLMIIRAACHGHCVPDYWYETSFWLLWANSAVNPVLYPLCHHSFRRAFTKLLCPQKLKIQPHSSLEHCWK
T2 sequence (Q12809 whole entry): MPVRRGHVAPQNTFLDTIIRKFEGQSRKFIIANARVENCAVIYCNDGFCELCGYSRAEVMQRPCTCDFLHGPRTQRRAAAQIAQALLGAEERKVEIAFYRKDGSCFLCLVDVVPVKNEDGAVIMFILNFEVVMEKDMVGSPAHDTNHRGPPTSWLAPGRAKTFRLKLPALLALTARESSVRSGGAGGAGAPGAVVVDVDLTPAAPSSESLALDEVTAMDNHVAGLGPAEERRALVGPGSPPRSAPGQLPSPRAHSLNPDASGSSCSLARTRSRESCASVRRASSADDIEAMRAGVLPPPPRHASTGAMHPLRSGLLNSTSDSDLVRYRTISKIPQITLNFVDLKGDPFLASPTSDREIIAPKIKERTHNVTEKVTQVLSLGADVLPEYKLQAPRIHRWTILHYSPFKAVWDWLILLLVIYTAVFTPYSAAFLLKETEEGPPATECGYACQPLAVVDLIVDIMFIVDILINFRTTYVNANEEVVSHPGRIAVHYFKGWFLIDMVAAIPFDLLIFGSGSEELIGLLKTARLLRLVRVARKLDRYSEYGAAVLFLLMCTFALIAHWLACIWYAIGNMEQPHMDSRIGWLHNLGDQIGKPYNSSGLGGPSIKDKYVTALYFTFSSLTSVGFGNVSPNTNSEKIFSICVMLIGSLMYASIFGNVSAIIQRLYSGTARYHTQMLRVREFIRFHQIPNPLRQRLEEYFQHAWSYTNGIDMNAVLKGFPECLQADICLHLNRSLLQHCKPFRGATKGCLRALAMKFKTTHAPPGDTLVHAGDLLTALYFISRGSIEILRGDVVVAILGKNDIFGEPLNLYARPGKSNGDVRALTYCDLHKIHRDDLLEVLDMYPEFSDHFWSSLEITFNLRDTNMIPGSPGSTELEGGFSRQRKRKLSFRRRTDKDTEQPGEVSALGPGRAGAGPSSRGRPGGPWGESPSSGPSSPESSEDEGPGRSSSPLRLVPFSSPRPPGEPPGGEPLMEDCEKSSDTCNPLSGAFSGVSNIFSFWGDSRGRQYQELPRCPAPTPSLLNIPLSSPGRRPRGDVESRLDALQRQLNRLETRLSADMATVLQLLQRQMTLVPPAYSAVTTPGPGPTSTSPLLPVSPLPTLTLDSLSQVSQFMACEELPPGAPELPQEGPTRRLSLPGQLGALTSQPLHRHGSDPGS
hERG (KCNH2), sequence (Q12809 whole entry): as above

Structure (SMILES): O=C(c1cccc(Oc2ccc(Cl)c(Cl)c2)n1)N1CCCN(C2CC2)CC1
- Ki (Histamine H3 receptor [1]): 1040 nM

Structure (SMILES): O=C(c1ccc(Oc2ccccc2F)cn1)N1CCCN(C2CCC2)CC1
- Ki (Histamine H3 receptor [1]): 4.3 nM
- Kb (Histamine H3 receptor [2]): 0.537 nM

Structure (SMILES): O=C(c1ccc(Sc2ccc(F)cc2)nc1)N1CCCN(C2CCC2)CC1
- Ki (Histamine H3 receptor [1]): 29 nM

Structure (SMILES): O=C(c1ccc(Oc2ccc(Cl)cc2)cn1)N1CCCN(C2CCC2)CC1
- Ki (Histamine H3 receptor [1]): 5.5 nM

Structure (SMILES): CC(C)N1CCN(C(=O)c2ccc(Oc3cccc(Cl)c3)nc2)CC1
- Ki (Histamine H3 receptor [1]): 100 nM

Structure (SMILES): CC(C)N1CCN(C(=O)c2ccc(Oc3ccc(Cl)c(Cl)c3)nc2)CC1
- Ki (Histamine H3 receptor [1]): 78 nM

Structure (SMILES): O=C(c1ccc(Oc2cccc(F)c2)nc1)N1CCCN(C2CCC2)CC1
- Vd [3]: 4.2 L/kg
- remaining at 0.5 h [4]: 99%
- Activity (Rattus norvegicus): 88%
- bioavailability [5]: 11%
- inhibition at 10 µM (hERG (KCNH2)): 0%
- clearance [6]: 118 mL/min/kg
- remaining at 0.5 h [7]: 86%
- concentration at 1 h [8]: 360 nM
- Ki (Histamine H3 receptor [1]): 4.1 nM
- IC50 [9]: 5400 nM
- concentration at 1 h [10]: 1960 nM
- half-life [11]: 0.8 h
- IC50 [12]: > 10000 nM

Structure (SMILES): CC(C)N1CCCN(C(=O)c2ccc(Oc3ccc(Cl)c(Cl)c3)nc2)CC1
- Ki (Histamine H3 receptor [1]): 18 nM

Structure (SMILES): O=C(c1ccc(Oc2ccc(Cl)c(Cl)c2)cn1)N1CCCN(C2CC2)CC1
- Ki (Histamine H3 receptor [1]): 10 nM

Structure (SMILES): CC(C)N1CCN(C(=O)c2ccc(Oc3cccc(C#N)c3)nc2)CC1
- Ki (Histamine H3 receptor [1]): 110 nM

Structure (SMILES): O=C(c1cc(Oc2ccc(F)cc2)ccn1)N1CCCN(C2CCC2)CC1
- Ki (Histamine H3 receptor [1]): 5.7 nM

Structure (SMILES): O=C(c1ccc(Oc2ccc(Cl)cc2)nc1)N1CCCN(C2CC2)CC1
- Ki (Histamine H3 receptor [1]): 13 nM

Structure (SMILES): CC(C)N1CCN(C(=O)c2ccc(Oc3ccc(F)cc3)nc2)CC1
- Ki (Histamine H3 receptor [1]): 79 nM

Structure (SMILES): O=C(c1ccc(Sc2ccccc2)cn1)N1CCCN(C2CCC2)CC1
- Ki (Histamine H3 receptor [1]): 3.7 nM

Structure (SMILES): O=C(c1ccc(Sc2ccccc2)nc1)N1CCCN(C2CCC2)CC1
- Ki (Histamine H3 receptor [1]): 2.3 nM

Structure (SMILES): O=C(c1ccc(Oc2ccc(F)cc2)nc1)N1CCCN(C2CC2)CC1
- Ki (Histamine H3 receptor [1]): 25 nM
- Kb (Histamine H3 receptor [2]): 1.58 nM

Structure (SMILES): O=C(c1cncc(Oc2ccc(F)cc2)c1)N1CCCN(C2CCC2)CC1
- Ki (Histamine H3 receptor [1]): 17 nM

Structure (SMILES): O=C(c1ccc(Oc2ccccc2Cl)nc1)N1CCN(C2CCCC2)CC1
- Ki (Histamine H3 receptor [1]): 40 nM

Structure (SMILES): O=C(c1ccc(Oc2ccc(Cl)cc2)nc1)N1CCCN(C2CCC2)CC1
- Vd [3]: 3 L/kg
- remaining at 0.5 h [4]: 95%
- Activity (Rattus norvegicus): 95%
- bioavailability [5]: 62%
- inhibition at 10 µM (hERG (KCNH2)): 23%
- clearance [6]: 36 mL/min/kg
- remaining at 0.5 h [7]: 63%
- Kb (Histamine H3 receptor [13]): 3.98 nM
- concentration at 1 h [8]: 4470 nM
- Ki (Histamine H3 receptor [1]): 59 nM
- IC50 [9]: 1400 nM
- concentration at 1 h [10]: 2620 nM
- half-life [11]: 1.3 h
- IC50 [12]: > 10000 nM
- Ki (Histamine H3 receptor [14]): 23 nM

Structure (SMILES): CC(C)N1CCCN(C(=O)c2cccc(Oc3ccc(Cl)c(Cl)c3)n2)CC1
- Ki (Histamine H3 receptor [1]): 430 nM

Structure (SMILES): CSc1ccc(Oc2ccc(C(=O)N3CCN(C(C)C)CC3)cn2)cc1
- Ki (Histamine H3 receptor [1]): 230 nM

Structure (SMILES): O=C(c1cc(Oc2ccccc2)ccn1)N1CCCN(C2CCC2)CC1
- Ki (Histamine H3 receptor [1]): 41 nM

Structure (SMILES): O=C(c1cccc(Oc2ccc(Cl)c(Cl)c2)n1)N1CCCN(C2CCC2)CC1
- Ki (Histamine H3 receptor [1]): 160 nM

Structure (SMILES): CC(C)N1CCN(C(=O)c2ccc(Oc3ccccc3)nc2)CC1
- Ki (Histamine H3 receptor [1]): 260 nM

Structure (SMILES): O=C(c1ccc(Oc2ccccc2Cl)nc1)N1CCCN(C2CCC2)CC1
- Ki (Histamine H3 receptor [1]): 17 nM

Structure (SMILES): CC(C)N1CCN(C(=O)c2ccc(Oc3ccccc3Cl)nc2)CC1
- Ki (Histamine H3 receptor [1]): 31 nM

Structure (SMILES): CC(C)N1CCN(C(=O)c2ccc(Oc3ccc(Cl)cc3)nc2)CC1
- Ki (Histamine H3 receptor [1]): 73 nM

Structure (SMILES): CCN1CCCN(C(=O)c2ccc(Oc3ccc(F)cc3)nc2)CC1
- Ki (Histamine H3 receptor [1]): 34 nM

Structure (SMILES): O=C(c1ccc(Oc2cccc(F)c2)nc1)N1CCCN(C2CC2)CC1
- Ki (Histamine H3 receptor [1]): 16 nM

Further lines, with some results ahead:

- Ki (Histamine H3 receptor [1]): 12 nM
Structure (SMILES): N#Cc1cccc(Oc2ccc(C(=O)N3CCCN(C4CC4)CC3)cn2)c1

- Ki (Histamine H3 receptor [1]): 4.7 nM
Structure (SMILES): O=C(c1ccc(Oc2cccc(Cl)c2)cn1)N1CCCN(C2CCC2)CC1

- Ki (Histamine H3 receptor [1]): 5.5 nM
Structure (SMILES): O=C(c1ccc(Oc2cccc(F)c2)cn1)N1CCCN(C2CCC2)CC1

- remaining at 0.5 h [4]: 99%
- remaining at 0.5 h [7]: 90%
- Kb (Histamine H3 receptor [13]): 3.72 nM
- concentration at 1 h [8]: 210 nM
- Ki (Histamine H3 receptor [1]): 4.4 nM
- Kb (Histamine H3 receptor [2]): 0.269 nM
- concentration at 1 h [10]: 300 nM
- Ki (Histamine H3 receptor [14]): 15 nM
Structure (SMILES): O=C(c1ccc(Oc2ccccc2)nc1)N1CCCN(C2CCC2)CC1

- Ki (Histamine H3 receptor [1]): 11 nM
Structure (SMILES): O=C(c1cncc(Oc2ccccc2)c1)N1CCCN(C2CCC2)CC1

- Ki (Histamine H3 receptor [1]): 9000 nM
Structure (SMILES): O=C(c1ccc(Oc2ccc(F)cc2)nc1)N1CCCNCC1

- Ki (Histamine H3 receptor [1]): 10 nM
Structure (SMILES): O=C(c1ccc(Oc2ccccc2)nc1)N1CCCN(C2CC2)CC1

- Ki (Histamine H3 receptor [1]): 1.5 nM
- Kb (Histamine H3 receptor [2]): 0.309 nM
Structure (SMILES): CC(C)N1CCCN(C(=O)c2ccc(Oc3ccc(Cl)c(Cl)c3)cn2)CC1

- Ki (Histamine H3 receptor [1]): 430 nM
Structure (SMILES): O=C(c1ccc(Oc2ccc(F)cc2)nc1)N1CCN(C2CC2)CC1

- Ki (Histamine H3 receptor [1]): 860 nM
Structure (SMILES): CN1CCCN(C(=O)c2ccc(Oc3ccc(F)cc3)nc2)CC1

- remaining at 0.5 h [4]: 30%
- remaining at 0.5 h [7]: 4%
- concentration at 1 h [8]: 1520 nM
- Ki (Histamine H3 receptor [1]): 7.6 nM
- concentration at 1 h [10]: 4790 nM
Structure (SMILES): O=C(c1ccc(Oc2ccc(Cl)c(Cl)c2)nc1)N1CCCN(C2CCC2)CC1
- Activity (Rattus norvegicus): 100%

- remaining at 0.5 h [4]: 70%
- remaining at 0.5 h [7]: 41%
- Kb (Histamine H3 receptor [13]): 11.5 nM
- concentration at 1 h [8]: 310 nM
- Ki (Histamine H3 receptor [1]): 17 nM
- concentration at 1 h [10]: 300 nM
- Ki (Histamine H3 receptor [14]): 75 nM
Structure (SMILES): O=C(c1ccc(Oc2cccc(Cl)c2)nc1)N1CCCN(C2CC2)CC1

- remaining at 0.5 h [4]: 82%
- remaining at 0.5 h [7]: 7%
- concentration at 1 h [8]: 30 nM
- Ki (Histamine H3 receptor [1]): 4.6 nM
- concentration at 1 h [10]: 120 nM
Structure (SMILES): O=C(c1ccc(Sc2ccc(F)cc2)cn1)N1CCCN(C2CCC2)CC1

- Vd [3]: 4.5 L/kg
- Vd [15]: 3.6 L/kg
- remaining at 0.5 h [4]: 95%
- clearance [16]: 35 mL/min/kg
- bioavailability [5]: 23%
- clearance [6]: 80 mL/min/kg
- remaining at 0.5 h [7]: 56%
- Kb (Histamine H3 receptor [13]): 26.3 nM
- concentration at 1 h [8]: 1020 nM
- Ki (Histamine H3 receptor [1]): 2.9 nM
- Kb (Histamine H3 receptor [2]): 1.41 nM
- half-life [17]: 1.9 h
- concentration at 1 h [10]: 2370 nM
- bioavailability [18]: 14%
- half-life [11]: 1 h
- Ki (Histamine H3 receptor [14]): 24 nM
Structure (SMILES): O=C(c1ccc(Oc2ccc(F)cc2)cn1)N1CCCN(C2CCC2)CC1
- Activity (Rattus norvegicus): 87%

- Vd [3]: 5 L/kg
- remaining at 0.5 h [4]: 98%
- bioavailability [5]: 19%
- clearance [6]: 104 mL/min/kg
- remaining at 0.5 h [7]: 58%
- Kb (Histamine H3 receptor [13]): 5.01 nM
- concentration at 1 h [8]: 630 nM
- Kb (Histamine H3 receptor [2]): 0.871 nM
- concentration at 1 h [10]: 1720 nM
- half-life [11]: 1 h
Structure (SMILES): O=C(c1ccc(Oc2cccc(Cl)c2)nc1)N1CCCN(C2CCC2)CC1
- Activity (Rattus norvegicus): 96%
- inhibition at 10 µM (hERG (KCNH2)): 28%
- IC50 [9]: 1600 nM
- IC50 [12]: > 10000 nM
